Key:
HLA-A2 = target: T1, HLA-A2 (Homo sapiens, UniProt P04439, D140Y/D185E/D98H/E176V/E277Q/G131W/G231S/I119V/I121R/I166T/I218V/L300P/L318F/N151K/N90K/P208A/P217A/Q86G/Q94H/R138H/R169H/T345S); experiment: Assembly assay for peptide binding to class I MHC, HLA-A2; settings: Example 1, Table 1; read-out: C50 (peptide concentration for half maximal binding to HLA-A2)
T1 construct: stabilization of the class I molecules after loading of peptide to the peptide transporter deficient cell line T2; endogenous in cells; host or cells: T2 (TAP-deficient human hybrid cell line), metabolically labelled lysate
Procedure: This assembly assay is carried out as described previously (12,13), and it is based on stabilisation of the HLA molecule after loading of peptide to the peptide transporter deficient cell line T2. Subsequently, correctly folded stable HLA heavy chains are immunoprecipitated using conformation dependent antibodies and the peptide binding is quantitated.
Assembly assays for binding of the synthetic peptides to class I MHC molecules metabolically labeled with [35S]-methionine were carried out as described (12,13). The assembly assay is based on stabilization of the class I molecules after loading of peptide to the peptide transporter deficient cell line T2. Subsequently, correctly folded stable MHC heavy chains are immunoprecipitated using conformation-dependent antibodies. After IEF electrophoresis, gels were exposed to phosphoImager screens, and peptide binding was quantified using the Imagequant PhosphorImager program (Molecular Dynamics, Sunnyvale, Calif.).
The binding affinity of synthetic peptides (Invitrogen, Carlsbad, Calif., USA) to HLA-A1, -A2, A3, or -A11 molecules metabolically labeled with [^35S]-methionine was measured in the assembly assay, as described previously (12). The assay is based on peptide-mediated stabilization of empty HLA molecules released upon cell lysis, from the TAP-deficient cell lines. […] MHC heavy chain bands were quantified using the ImageGauge Phosphorimager program (FUJI photo film Co., Carrollton, Tex., USA). The intensity of the band is proportional to the amount of peptide-bound class I MHC complex recovered during the assay. Subsequently, the extent of stabilization of the HLA-molecule is directly related to the binding affinity of the added peptide. The peptide concentration used to analyze the recovery of the HLA-molecules was 40, 4, 0.4, 0.04 μM for HLA-A1 and HLA-A11, and 100, 10, 1, 0.1, 0.01 μM for HLA-A2 and HLA-A3. The C50 value was subsequently calculated for each peptide as the peptide concentration sufficient for half maximal stabilization.

[1] = test system: stage 1V melanoma patients; experiment: Vaccination of melanoma patients with peptide pulsed dendritic cells; settings: human, in vivo
Source text: All clinical procedures were in accordance with the Declaration of Helsinki and all patients provided informed consent prior to therapy. Stage 1V cutaneous or uveal melanoma patients were eligible when their disease was progressive despite at least two different chemo-, immuno, or chemoimmunotherapies. […] Important exclusion criteria were evidence of CNS metastases, active autoimmune or infectious diseases, pregnancy and lactation, as well as significant psychiatric abnormality. Peptide pulsed dendritic cells were generated as previously described (82). Briefly, PBMCs from leukapheresis were isolated on LymphoprepTM (Nycomed Pharma), frozen in aliquots and stored in liquid nitrogen. One week prior to vaccination, PBMCs were thawed, washed and cultured in medium containing gentamycin, glutamine and heat inactivated autologous plasma. On day 1 and 5, IL-4 and GM-CSF were added. To differentiate mature DCs, […] and prostaglandin E2 were added on day 6. […] Immunological responses were monitored by the ELISPOT assay, using PBMCs obtained every three months, to detect survivin96-104 specific IFN-γ release. […] The reaction was terminated upon the appearance of dark purple spots, which were quantitated using the AlphaImager System (Alpha Innotech, San Leandro, Calif., USA).

- EC50 (HLA-A2): 1000 nM
SMILES: CSCC[C@H](NC(=O)[C@@H](N)CC(C)C)C(=O)N[C@@H](CC(C)C)C(=O)NCC(=O)N[C@@H](CCC(=O)O)C(=O)N[C@@H](Cc1ccccc1)C(=O)N[C@@H](CC(C)C)C(=O)N[C@@H](CCCCN)C(=O)N[C@@H](CC(C)C)C(=O)O [Sur1M2]
- vaccination associated toxicity [1]: vaccination associated toxicity was not observed

Source: patent US20070148184A1, “Survivin-derived peptides and use thereof” (priority 2003, published 2007)
